Results: US11523610B2, “Regulating plant growth using a diapocarotenoid” (King Abdullah University of Science and Technology, priority 2018, dated 2022)

Tests used:
[1] = LC-MS quantification of anchorene in Arabidopsis tissues; conditions: 12-day-old seedlings incubated 6 hours with 20 μM; compared to control and OH-APO10′
Description: About 30 mg (30-40 mg) of freeze-dried and ground Arabidopsis seedlings tissues were extracted using 1 mL of acetonitrile with anti-oxidant [0.1% butylated hydroxytoluene (BHT)] for 15 min in an ultrasonic bath (Branson® 5510EDTH, 25° C., 15 min), followed by centrifugation for 8 min at 13000 rpm at 4° C. The collected supernatant was dried using a concentrator (Labconco RapidVap® System). The extract was derivatized (SCHEME 3) with 50 μL of derivatization solution containing 5 mg/mL derivatization reagent (N^2,N^2,N^4,N^4-tetraethyl-6-hydrazineyl-1,3,5-triazine-2,4-diamine) (Chemspace) and 1% formic acid in methanol at 37° C. for 15 min. Then the sample solution was diluted to 150 μL with 1% formic acid in methanol and filtered by using 0.22 μm filter before LC-MS analysis.
The quantitative analysis of derivative anchorene were carried out on HPLC-Q-Trap MS/MS. Chromatographic separation was achieved on an Acquity UPLC CSH C18 column (50×2.1 mm; 1.7 μm; Waters) using a mobile phase consisting of water: acetonitrile (95:5, v:v, A) and pure acetonitrile (B), both containing 0.1% formic acid. A gradient was applied, starting with 10% B and increasing to 40% B over 5 min. Then 15% B was increased
within 10 min followed by an increase of 45% B over 2 min. And then 100% B was maintained for 10 min. To equilibrate the column before the next run, the mobile phase was adjusted back to 10% B in 1 min and this concentration was maintained for 8 min prior to the next sample injection. A flow rate of 0.15 mL/min and a column temperature of 40° C. were maintained throughout the run. The eluent of the column was introduced to the mass spectrometer using turbo spray ion source in positive mode. The injection volume was 10 μL. The conditions of the mass spectrometer were set as following: curtain gas: 30; ion spray voltage: 5 kV; temperature: 400° C.; ion source gas 1: 30; ion source gas 2: 40; declustering potential, 55; entrance potential: 10; collision energy: 25; collision cell exit potential: 10. […]

[2] = test system: Arabidopsis seedlings (anchor roots); assay: ANR formation under OH-Apo10′ and OH-Apo12′ treatment; format: in vivo; conditions: 10 μM, counted at 10 DAG
Text: FIGS. 21A-D show a diapocarotenoid precursor (OH-Apo12′) is converted into anchorene in plants, according to one or more embodiments of the present disclosure. […] (B) is a histogram showing quantification of achorene in mock, OH-Apo10′, and OH-Apo12′ fed Arabidopsis seedlings. (C) is a histogram showing ANR emergence in mock, OH-Apo10′, and OH-Apo12′ fed seedlings. […] For B and C, two-tailed Student's t-test, **P<0.01, *** P<0.001; in B, n=4; in C data are presented as mean ±SD from 3 independent replicates; in B, 12-day-old seedlings were incubated with indicated chemicals for 6 hours and 20 μM OH-Apol10′ and OH-Apo12′ were used; and C, 10 μM OH-Apol ′ and OH-Apo12′ were used and the ANR No./plant was counted at 10 DAG. For the quantification of ANR formation under OH-Apo10′ and OH-Apo12′ treatment conditions, the sterilized Arabidopsis seeds were exposed to light for 24 hours first, and then plated to 1/2 MS plates with indicated chemicals; the plates were kept under darkness (22° C.) for another two days and then exposed to long day light conditions for another 7 days to count the ANR emergence.

Structure (SMILES) | anchorene content of fed seedlings [1] | anchor roots formed compared to mock (ANR No./plant) [2]
CC1=C(/C=C/C(C)=C/C=C/C(C)=C/C=C/C=C(\C)C=O)C(C)(C)CC(O)C1 (stereo not drawn) [OH-APO12′, all-trans-3-OH-β12′-carotenal] | much more anchorene | formed more anchor routes
CC(C=CC=O)=CC=CC=C(C)C=CC=C(C)C=CC1=C(C)CC(O)CC1(C)C (stereo not drawn) [OH-APO10′, reference compound] | – | not
